Active and inactive are the calls of the source.
Legend:
[1] = target: Metabotropic glutamate receptor 4 (Rattus norvegicus, UniProt P31423); test: Modulation of the Metabotropic Glutamate Receptor mGluR4: Rat PAM Potency. [Related pubchem assays (depositor defined):AID2437, AID2807]; assay type: functional
[2] = target: T1, Rac GTPase-activating protein 1 (Homo sapiens, UniProt Q9H0H5); test: MgcRacGAP GTPase-activating activity inhibitors, confirmation, biochemical, ADP Hunter fluorescence, primary and confirmatory (AID 624330); assay type: functional
T1 sequence (Q9H0H5 whole entry): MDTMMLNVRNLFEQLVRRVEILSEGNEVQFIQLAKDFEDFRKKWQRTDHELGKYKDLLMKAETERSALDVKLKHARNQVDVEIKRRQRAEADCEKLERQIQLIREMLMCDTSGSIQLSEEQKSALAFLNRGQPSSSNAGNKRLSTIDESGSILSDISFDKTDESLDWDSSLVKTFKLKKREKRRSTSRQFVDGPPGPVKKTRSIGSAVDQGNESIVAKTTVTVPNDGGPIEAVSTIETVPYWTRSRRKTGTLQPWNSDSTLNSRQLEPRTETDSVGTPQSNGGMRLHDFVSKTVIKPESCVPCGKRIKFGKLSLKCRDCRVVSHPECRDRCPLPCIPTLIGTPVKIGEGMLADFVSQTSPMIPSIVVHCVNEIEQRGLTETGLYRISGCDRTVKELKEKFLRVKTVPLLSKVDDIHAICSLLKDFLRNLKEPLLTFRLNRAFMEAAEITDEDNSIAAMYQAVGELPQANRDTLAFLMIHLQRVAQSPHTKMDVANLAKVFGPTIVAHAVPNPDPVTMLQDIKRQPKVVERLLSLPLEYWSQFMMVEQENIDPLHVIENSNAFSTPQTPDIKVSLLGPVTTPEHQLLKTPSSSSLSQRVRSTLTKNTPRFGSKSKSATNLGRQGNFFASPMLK

[3] = target: T2, SUMO-activating enzyme (Homo sapiens, UniProt Q9UBT2); test: inhibitors of in vitro SUMOylation cascade, primary screen, biochemical, HTRF, uHTS (AID 2006); assay type: protein-complex assay
T2 sequence (Q9UBE0 whole entry): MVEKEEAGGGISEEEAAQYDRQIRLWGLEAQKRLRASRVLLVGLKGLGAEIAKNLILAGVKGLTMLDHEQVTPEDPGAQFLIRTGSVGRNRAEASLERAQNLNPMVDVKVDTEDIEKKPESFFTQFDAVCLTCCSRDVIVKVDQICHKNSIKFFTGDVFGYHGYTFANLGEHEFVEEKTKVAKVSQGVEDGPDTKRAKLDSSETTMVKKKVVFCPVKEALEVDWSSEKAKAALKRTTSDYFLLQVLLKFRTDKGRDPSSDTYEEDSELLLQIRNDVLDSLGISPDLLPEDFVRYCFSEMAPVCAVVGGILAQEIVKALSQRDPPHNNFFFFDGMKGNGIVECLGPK
T2 sequence (Q9UBT2 whole entry): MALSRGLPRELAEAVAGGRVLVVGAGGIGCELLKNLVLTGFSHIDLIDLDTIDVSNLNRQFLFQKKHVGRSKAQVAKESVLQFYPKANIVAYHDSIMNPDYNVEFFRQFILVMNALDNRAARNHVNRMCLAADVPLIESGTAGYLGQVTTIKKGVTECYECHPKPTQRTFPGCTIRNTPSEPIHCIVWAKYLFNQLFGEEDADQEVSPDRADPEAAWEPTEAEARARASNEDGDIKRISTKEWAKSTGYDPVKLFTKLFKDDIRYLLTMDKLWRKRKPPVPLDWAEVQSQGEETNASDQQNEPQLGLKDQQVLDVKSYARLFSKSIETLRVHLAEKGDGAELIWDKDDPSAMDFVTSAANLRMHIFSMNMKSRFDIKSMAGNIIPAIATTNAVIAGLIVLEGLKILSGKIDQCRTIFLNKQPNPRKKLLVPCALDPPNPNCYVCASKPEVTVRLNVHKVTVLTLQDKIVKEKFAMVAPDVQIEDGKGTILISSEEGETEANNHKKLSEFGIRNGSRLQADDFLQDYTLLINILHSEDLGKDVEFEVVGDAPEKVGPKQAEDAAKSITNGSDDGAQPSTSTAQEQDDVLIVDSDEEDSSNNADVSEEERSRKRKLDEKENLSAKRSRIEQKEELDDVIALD

[4] = target: Glucose-6-phosphate 1-dehydrogenase (Homo sapiens, UniProt P11413); test: human G6PD enzyme inhibitors, dose response, selectivity assay for P. falciparum G6PD inhibitor project, biochemical, fluorescence (AID 504792); assay type: functional
Glucose-6-phosphate 1-dehydrogenase, sequence (P11413 whole entry): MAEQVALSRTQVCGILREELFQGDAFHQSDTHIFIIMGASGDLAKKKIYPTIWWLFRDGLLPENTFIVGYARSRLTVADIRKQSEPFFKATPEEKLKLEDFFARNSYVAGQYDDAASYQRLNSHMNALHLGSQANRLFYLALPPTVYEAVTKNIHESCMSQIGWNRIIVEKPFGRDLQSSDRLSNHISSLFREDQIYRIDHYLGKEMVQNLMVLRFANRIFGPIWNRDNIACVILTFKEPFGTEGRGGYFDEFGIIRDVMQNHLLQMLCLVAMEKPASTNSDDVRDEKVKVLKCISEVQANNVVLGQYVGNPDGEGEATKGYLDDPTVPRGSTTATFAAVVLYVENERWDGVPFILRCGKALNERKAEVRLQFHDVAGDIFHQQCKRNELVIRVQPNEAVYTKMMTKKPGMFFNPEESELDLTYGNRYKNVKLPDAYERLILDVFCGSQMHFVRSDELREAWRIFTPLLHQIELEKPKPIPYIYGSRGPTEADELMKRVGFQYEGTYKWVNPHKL

[5] = inhibitors of Bluetongue virus cytopathic effect, confirmation, arbovirus, BSR cells (AID 1250); assay type: functional;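 note: protection from viral cytopathic effect measured as cell viability by ATP luminescence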
[6] = target: Melanin-concentrating hormone receptor 1 (Homo sapiens, UniProt Q99705); test: Fluorescence-based counterscreen for antagonists of the G-protein coupled receptor 7 (GPR7): cell-based high throughput dose response assay to identify antagonists of the melanin-concentrating hormone receptor 1 (MCHR1).; assay type: functional
Melanin-concentrating hormone receptor 1, sequence (Q99705 whole entry): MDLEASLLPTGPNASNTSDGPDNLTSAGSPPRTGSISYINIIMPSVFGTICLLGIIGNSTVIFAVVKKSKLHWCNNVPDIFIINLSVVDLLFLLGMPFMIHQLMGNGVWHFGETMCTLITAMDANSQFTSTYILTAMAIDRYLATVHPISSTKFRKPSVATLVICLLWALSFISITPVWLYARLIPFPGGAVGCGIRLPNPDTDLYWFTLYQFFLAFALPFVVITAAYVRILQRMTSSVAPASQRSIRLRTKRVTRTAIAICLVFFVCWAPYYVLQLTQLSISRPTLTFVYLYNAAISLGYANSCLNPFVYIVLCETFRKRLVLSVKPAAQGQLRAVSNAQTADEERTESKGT

[7] = target: T2, SUMO-activating enzyme; test: SUMOylation inhibitor hit validation, confirmation, SUMOylation inhibitor project, biochemical, AlphaScreen (AID 2018); assay type: functional
[8] = target: Eukaryotic translation initiation factor 4E (Mus musculus, UniProt P63073); test: eIF4E–eIF4G protein interaction inhibitors, dose response, biochemical, TR-FRET (AID 855); assay type: functional;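 note: potency for disrupting eIF4E binding to eIF4GI seen as loss of FRET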
[9] = HEp-2 cell cytotoxicity, dose response, cytotoxicity control for RSV inhibitor project, HTS (AID 2410); assay type: functional; details: human respiratory syncytial virus
[10] = cells
[11] = growth suppression of PTEN-null colon cells, dose response, cell-based, HCT116 PTEN knockout (AID 1047); assay type: functional;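 note: HCT116 colon tumor cells with PTEN knocked out; cells exposed to compound for 60 hours before readout; potency for loss of cell viability measured by luminescence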
[12] = growth suppression of beta-catenin-knockout colon cells, dose response, cell-based, HCT116, human colon tumor (AID 1045); assay type: functional;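 note: HCT116 colon tumor cells with beta catenin knocked out; cells exposed to compound for 60 hours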
[13] = target: Induced myeloid leukemia cell differentiation protein Mcl-1 (Homo sapiens, UniProt Q07820); assay type: functional
Induced myeloid leukemia cell differentiation protein Mcl-1, sequence (Q07820 whole entry): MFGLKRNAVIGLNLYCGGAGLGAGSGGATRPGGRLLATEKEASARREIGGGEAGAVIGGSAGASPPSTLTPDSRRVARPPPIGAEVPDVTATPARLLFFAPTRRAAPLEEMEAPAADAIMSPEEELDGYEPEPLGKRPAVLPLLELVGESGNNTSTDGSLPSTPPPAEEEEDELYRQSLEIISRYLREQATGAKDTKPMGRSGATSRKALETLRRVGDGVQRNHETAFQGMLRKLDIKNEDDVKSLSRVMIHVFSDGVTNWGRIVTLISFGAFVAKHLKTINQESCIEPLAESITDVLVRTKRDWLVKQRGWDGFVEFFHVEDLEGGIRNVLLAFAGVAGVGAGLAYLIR

[14] = system: Vero; test: cells; assay type: functional; details: Chlorocebus sabaeus
[15] = Luminescence Cell-Based Dose Retest to Confirm Inhibitors of Cancer Stem Cells. [Related pubchem assays (depositor defined):AID2717, AID2721]; assay type: functional; details: Homo sapiens
[16] = target: Protein Rev (Human immunodeficiency virus type 1 group M subtype B (isolate WMJ22)(HIV-1), UniProt P05866); test: HIV-1 Rev-RRE RNA binding disruptors, dose response, biochemical, protein-RNA interaction (AID 842); design: species or system Human immunodeficiency virus 1
Protein Rev, sequence (P05866 whole entry): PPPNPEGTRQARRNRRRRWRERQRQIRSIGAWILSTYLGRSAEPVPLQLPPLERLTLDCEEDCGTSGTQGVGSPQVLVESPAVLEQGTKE

[17] = target: Lysosomal acid glucosylceramidase (Homo sapiens, UniProt P04062); test: Dose response cell-based high throughput screening assay to identify enhancers of beta-glucosidase activity. [Related pubchem assays: 784 ]; assay type: functional
Lysosomal acid glucosylceramidase, sequence (P04062 whole entry): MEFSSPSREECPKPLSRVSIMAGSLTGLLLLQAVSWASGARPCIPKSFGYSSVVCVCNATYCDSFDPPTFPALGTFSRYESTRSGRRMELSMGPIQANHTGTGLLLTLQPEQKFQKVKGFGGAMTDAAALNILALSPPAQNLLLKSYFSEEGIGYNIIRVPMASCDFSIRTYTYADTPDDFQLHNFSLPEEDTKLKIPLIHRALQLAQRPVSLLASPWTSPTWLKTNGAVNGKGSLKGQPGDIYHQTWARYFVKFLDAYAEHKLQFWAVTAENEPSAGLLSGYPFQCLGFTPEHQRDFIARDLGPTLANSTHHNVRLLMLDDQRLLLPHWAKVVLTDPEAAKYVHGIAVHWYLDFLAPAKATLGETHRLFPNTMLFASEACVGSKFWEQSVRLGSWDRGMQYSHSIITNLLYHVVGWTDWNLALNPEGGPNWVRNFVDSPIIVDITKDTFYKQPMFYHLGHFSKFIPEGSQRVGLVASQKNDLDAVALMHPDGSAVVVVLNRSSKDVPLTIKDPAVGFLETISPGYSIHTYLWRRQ

[18] = target: T3, Nuclear receptor subfamily 0 group B member 1 (Homo sapiens, UniProt P51843); assay type: functional, cell-based;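 note: HEK293T cells transfected with SF-1 and DAX-1 plus StAR promoter luciferase reporter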
T3 sequence (P51843 whole entry): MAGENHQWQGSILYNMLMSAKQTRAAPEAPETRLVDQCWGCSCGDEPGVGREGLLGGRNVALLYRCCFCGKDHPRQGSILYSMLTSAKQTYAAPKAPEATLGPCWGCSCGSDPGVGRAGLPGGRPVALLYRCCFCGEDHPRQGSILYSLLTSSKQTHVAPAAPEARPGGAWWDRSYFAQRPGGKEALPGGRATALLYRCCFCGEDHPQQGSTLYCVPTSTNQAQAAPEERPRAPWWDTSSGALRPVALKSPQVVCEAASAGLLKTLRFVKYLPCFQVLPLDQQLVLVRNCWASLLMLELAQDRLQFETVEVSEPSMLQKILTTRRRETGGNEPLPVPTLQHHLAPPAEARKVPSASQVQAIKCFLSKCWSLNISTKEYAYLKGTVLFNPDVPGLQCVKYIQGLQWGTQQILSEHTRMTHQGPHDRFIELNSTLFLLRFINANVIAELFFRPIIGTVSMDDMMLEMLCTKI

[19] = cells; assay type: functional, cell-based
[20] = target: Glyceraldehyde-3-phosphate dehydrogenase (Homo sapiens, UniProt P04406)
Glyceraldehyde-3-phosphate dehydrogenase, sequence (P04406 whole entry): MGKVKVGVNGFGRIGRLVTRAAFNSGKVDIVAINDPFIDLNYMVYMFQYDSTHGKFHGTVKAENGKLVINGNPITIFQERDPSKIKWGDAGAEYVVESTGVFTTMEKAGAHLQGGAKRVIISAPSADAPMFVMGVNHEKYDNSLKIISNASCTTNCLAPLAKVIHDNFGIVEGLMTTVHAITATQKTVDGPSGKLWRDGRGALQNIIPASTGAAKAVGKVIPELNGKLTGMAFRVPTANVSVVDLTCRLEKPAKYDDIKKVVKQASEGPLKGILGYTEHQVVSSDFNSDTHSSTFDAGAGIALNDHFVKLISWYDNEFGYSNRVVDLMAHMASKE

[21] = target: T4, Sentrin-specific protease 1 (Homo sapiens, UniProt Q9P0U3); test: potency of human SENP1 inhibitors, dose response, biochemical, kinetic FRET (AID 651697); assay type: functional; details: read-out: IC50_Mean
T4 sequence (Q9P0U3 whole entry): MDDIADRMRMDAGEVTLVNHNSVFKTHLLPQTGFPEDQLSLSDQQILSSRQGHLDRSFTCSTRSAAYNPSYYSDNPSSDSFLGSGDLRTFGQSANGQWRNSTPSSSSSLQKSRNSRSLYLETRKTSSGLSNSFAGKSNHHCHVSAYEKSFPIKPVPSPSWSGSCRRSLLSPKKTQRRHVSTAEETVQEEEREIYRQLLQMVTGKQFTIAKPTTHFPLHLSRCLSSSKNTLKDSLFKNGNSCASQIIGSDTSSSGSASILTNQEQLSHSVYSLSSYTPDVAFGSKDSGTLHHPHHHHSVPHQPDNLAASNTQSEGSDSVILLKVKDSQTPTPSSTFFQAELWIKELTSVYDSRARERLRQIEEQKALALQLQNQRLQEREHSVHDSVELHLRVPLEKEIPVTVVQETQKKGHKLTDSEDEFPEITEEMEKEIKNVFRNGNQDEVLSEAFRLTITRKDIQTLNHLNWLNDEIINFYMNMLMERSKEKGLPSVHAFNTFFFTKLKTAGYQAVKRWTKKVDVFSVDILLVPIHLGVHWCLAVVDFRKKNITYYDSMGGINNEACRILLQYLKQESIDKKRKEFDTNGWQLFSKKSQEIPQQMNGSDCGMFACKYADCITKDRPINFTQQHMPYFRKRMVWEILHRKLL

[22] = target: T4, Sentrin-specific protease 1; test: Dose response confirmation of small molecule inhibitors of the catalytic domain of the SUMO protease, SENP1 in a FRET assay.; assay type: functional; details: read-out: IC50_Mean
[23] = cytotoxicity in HEK-293T cells, dose response, cytotoxicity control for BCR NF-kB inhibitor project, luminescence, B-cell screen hits (AID 489021); assay type: functional, cell-based;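 note: HEK-293T cells carrying an NF-kB luciferase reporter; cells exposed to compound for about 14 hours before viability readout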
[24] = target: Cytochrome P450 3A4 (Homo sapiens, UniProt P08684);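 note: CYP3A4 tested as one member of a cytochrome P450 panel screen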
Cytochrome P450 3A4, sequence (P08684 whole entry): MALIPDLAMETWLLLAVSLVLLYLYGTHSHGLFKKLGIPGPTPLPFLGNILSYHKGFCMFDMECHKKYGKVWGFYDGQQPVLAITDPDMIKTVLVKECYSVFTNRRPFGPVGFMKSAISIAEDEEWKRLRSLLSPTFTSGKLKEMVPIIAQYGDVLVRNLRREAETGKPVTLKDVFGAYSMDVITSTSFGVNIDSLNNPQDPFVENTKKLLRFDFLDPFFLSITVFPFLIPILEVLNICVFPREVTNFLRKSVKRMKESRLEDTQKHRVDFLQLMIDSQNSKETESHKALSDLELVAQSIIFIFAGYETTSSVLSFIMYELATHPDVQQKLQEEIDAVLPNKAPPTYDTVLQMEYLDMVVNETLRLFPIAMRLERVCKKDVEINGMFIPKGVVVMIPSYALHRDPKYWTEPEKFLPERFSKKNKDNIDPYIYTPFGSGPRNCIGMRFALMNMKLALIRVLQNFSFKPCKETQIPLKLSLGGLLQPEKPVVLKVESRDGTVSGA

[25] = target: T5, DNA repair and recombination protein RAD54-like (Homo sapiens, UniProt Q92698); test: inhibitors of human RAD54 branch migration, confirmation, biochemical, fluorescence, cherry-picked samples, dose series (AID 651657); assay type: functional
T5 sequence (Q92698 whole entry): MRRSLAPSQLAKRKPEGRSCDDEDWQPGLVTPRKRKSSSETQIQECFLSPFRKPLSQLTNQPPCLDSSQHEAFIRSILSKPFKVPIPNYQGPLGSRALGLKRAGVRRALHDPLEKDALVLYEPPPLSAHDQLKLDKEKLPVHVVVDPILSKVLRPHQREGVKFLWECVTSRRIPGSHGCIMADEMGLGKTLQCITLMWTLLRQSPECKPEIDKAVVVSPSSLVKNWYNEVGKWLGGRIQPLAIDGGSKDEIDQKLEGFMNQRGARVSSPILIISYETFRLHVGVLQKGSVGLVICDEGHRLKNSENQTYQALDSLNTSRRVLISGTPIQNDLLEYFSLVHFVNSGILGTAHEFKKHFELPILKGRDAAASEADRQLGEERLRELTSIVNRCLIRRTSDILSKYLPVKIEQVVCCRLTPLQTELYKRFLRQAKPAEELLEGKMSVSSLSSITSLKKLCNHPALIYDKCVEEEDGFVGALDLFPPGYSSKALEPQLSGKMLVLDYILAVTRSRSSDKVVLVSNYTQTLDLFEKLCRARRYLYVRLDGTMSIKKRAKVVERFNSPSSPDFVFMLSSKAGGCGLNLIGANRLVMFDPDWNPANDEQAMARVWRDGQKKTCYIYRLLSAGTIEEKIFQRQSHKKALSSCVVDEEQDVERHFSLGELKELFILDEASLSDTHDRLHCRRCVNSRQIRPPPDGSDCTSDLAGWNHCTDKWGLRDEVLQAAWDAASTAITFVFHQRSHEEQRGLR

[26] = target: Kallikrein-7 (Homo sapiens, UniProt P49862); test: Fluorescence Intensity-based biochemical primary high throughput dose response assay to identify activators of kallikrein-7 (K7) zymogen.
Kallikrein-7, sequence (P49862 whole entry): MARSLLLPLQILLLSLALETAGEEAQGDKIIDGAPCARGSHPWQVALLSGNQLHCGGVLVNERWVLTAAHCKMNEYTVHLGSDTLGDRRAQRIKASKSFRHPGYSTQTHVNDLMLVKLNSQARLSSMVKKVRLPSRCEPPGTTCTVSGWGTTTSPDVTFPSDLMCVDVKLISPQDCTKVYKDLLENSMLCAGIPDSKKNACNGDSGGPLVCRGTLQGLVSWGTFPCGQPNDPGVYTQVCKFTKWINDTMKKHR

[27] = target: T6, Bcl-2-related protein A1 (Mus musculus, UniProt Q07440); test: Bfl-1 binding inhibitors, SAR follow-up, biochemical, fluorescence polarization (AID 1070)
T6 sequence (Q07440 whole entry): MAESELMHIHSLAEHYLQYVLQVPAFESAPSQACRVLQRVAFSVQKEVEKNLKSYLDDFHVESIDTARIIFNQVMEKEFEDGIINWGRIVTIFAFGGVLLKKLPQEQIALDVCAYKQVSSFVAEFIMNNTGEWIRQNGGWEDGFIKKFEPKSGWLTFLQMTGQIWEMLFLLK

[28] = target: T6, Bcl-2-related protein A1; test: Bfl-1 inhibitors blocking BH3 peptide binding, confirmation, biochemical, TR-FRET, mouse Bfl-1 (AID 621);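 note: TR-FRET binding of GST-Bfl-1 to FITC-labelled Bid peptide via terbium antibody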

Metabotropic glutamate receptor 4, sequence (P31423 whole entry): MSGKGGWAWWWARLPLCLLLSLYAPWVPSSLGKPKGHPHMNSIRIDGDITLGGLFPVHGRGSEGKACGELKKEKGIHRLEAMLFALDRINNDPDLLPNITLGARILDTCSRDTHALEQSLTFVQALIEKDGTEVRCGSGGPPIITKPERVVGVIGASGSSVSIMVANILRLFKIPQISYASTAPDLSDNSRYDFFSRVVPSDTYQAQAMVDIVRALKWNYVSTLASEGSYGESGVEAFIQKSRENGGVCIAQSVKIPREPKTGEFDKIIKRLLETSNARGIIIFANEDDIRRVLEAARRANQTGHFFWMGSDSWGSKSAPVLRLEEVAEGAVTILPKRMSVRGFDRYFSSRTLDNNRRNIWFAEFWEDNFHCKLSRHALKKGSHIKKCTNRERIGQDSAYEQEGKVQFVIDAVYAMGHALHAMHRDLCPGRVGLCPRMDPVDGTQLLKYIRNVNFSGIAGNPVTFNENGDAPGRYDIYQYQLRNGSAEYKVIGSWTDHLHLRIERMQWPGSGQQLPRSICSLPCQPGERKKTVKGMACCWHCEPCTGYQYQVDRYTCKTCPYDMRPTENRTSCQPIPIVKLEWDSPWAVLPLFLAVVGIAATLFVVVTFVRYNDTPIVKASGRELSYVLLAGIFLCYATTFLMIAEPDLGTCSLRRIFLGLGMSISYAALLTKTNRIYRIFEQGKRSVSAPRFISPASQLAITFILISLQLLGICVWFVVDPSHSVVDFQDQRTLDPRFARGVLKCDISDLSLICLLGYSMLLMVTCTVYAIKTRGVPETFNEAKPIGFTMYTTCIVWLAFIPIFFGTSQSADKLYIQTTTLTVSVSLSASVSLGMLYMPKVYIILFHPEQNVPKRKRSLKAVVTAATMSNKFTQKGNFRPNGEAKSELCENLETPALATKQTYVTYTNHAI

## O=C(Nc1ccc(N2C(=O)CC(c3ccccc3)C2=O)c(Cl)c1)c1ccccn1 (centres undefined)
[1]
  EC50: 0.49 µM (active)

## O=[N+]([O-])c1cc([N+](=O)[O-])c2nonc2c1Nc1ccc(O)cc1
[2]
  IC50: 56.8 µM (active)
[3]
  IC50: > 100 µM (inactive)

## O=C(Nc1sc2c(c1C(=O)O)CCC2)c1ccc(F)cc1
[4]
  IC50: > 80 µM (inactive)
[5]
  IC50: 31.4 µM (active)

## COCCCNC(=O)/C=C1\Sc2ccccc2N(Cc2ccccc2F)C1=O
[6]
  IC50: 28.8 µM (not active)

## O=C(Nc1ccc(Cl)c(Cl)c1)c1ccncn1
[1]
  EC50: 3.37 µM (active)

## COc1cc2c(-c3ccc(O)cc3)nc3c(c(C)nn3-c3ccccc3)c2cc1OC
[7]
  IC50: 2.06 µM (active)
[8]
  IC50: 53.5 µM (inactive)
[9]
  CC50: 9.63 µM (active)
[10]
  IC50: 19.1 µM (active)
[11]
  EC50: 9.2 µM (active)
[12]
  EC50: 8.96 µM (active)
[13]
  IC50: < 0.4 µM (active)
[3]
  IC50: 7.67 µM (active)
[14]
  CC50: 19.7 µM (active)
[15]
  AC50: 1.23 µM (active)

## CC(C)COc1ccc(Cc2cnc(N)nc2N)cc1
[16]
  IC50: > 79.4 µM (not active)

## CC1=C(C(N)=O)C(c2cccs2)n2nc(-c3cccc(C)c3)nc2N1 (centres undefined)
[17]
  EC50: > 50 µM (not active)

## COc1ccc(/C=C/C(=O)Nc2ccccc2C(=O)O)cc1
[18]
  IC50: > 67.5 µM (inactive)
[5]
  IC50: 31 µM (active)
[19]
  IC50: > 67.5 µM (inactive)

## Cc1cccc(N2C(=O)C(Cl)=C(N3CCN[C@@H](C)C3)C2=O)c1
[20]
  IC50: > 50 µM (inconclusive)

## NCCCC(=O)N1c2ccccc2Sc2ccccc21
[16]
  IC50: > 79.4 µM (not active)

## CCN1C(=O)c2cccc3c(NC(=O)c4cccc(N5C(=O)CCC5=O)c4)ccc1c23
[21]
  IC50: 17.9 µM (active)
[22]
  IC50: 11.3 µM (active)
[23]
  IC50: > 80 µM (inactive)
[24]
  AC50: 22.4 µM (inconclusive)

## CCOCCCn1c(=N)c(C(=O)NCCN2CCOCC2)cc2c(=O)n3cccc(C)c3nc21
[17]
  EC50: > 50 µM (not active)
[25]
  AC50: 25.3 µM (active)
[26]
  EC50: > 69.5 µM (inactive)

## CN1CCN(C2=C(Cl)C(=O)N(c3ccnc(Cl)c3)C2=O)CC1
[27]
  IC50: 29 µM (active)
[20]
  IC50: > 100 µM (not active)
[28]
  IC50: 35.6 µM (active)

Source: ChEMBL document CHEMBL1201862, “PubChem BioAssay data set” (2004)
